pIC50: −log10 of the molar value.
Legend:
[1] = (§1) Inhibition of Drosophila Kinesin-1 assessed as reduction in microtubule-stimulated ATPase activity preincubated for 15 mins followed by microtubule addition in the presence of ATP after 6 mins by malachite green method
[2] = Cytotoxicity against human HeLa cells assessed as reduction in cell viability after 48 hrs by SF-based cell counting method; assay type: functional
[3] = biological target: T1, Kinesin-like protein KIF11 (Homo sapiens, UniProt P52732); experiment: as §1, with “wild type eXact-tagged human Eg5 motor domain (1 to 368 residues) expressed in Escherichia coli BL21(DE3)” for “Drosophila Kinesin-1”
T1 sequence (P52732 whole entry): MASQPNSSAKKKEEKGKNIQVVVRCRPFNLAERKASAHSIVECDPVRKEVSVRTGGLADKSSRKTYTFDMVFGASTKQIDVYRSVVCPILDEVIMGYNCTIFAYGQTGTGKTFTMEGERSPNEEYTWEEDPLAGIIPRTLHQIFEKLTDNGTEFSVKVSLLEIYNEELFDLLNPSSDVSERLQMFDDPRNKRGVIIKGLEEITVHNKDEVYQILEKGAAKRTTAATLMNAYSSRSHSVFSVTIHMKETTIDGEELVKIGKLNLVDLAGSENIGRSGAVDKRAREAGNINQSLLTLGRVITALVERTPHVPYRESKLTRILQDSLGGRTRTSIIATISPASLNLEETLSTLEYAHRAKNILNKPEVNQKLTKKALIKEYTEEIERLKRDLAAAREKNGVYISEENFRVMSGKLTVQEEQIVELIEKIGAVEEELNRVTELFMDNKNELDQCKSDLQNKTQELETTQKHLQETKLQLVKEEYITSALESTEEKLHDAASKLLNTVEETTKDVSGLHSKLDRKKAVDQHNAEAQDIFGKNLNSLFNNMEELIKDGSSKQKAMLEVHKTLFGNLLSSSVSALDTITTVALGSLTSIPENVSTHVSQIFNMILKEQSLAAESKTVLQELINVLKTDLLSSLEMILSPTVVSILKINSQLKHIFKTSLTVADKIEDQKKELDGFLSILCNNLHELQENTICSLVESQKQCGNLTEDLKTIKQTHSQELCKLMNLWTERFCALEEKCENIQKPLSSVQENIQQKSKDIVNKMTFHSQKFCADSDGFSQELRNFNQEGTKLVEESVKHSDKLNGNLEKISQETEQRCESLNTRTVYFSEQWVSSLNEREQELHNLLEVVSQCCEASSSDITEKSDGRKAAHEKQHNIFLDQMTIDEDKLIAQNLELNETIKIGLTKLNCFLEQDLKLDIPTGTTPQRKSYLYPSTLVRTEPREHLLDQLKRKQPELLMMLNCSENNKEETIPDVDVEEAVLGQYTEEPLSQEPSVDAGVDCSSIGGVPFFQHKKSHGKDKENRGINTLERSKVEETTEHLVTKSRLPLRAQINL

[4] = Cytotoxicity against human HT-29 cells; assay type: functional, cell-based
[5] = biological target: T2, Broad substrate specificity ATP-binding cassette transporter ABCG2 (Homo sapiens, UniProt Q9UNQ0); experiment: Inhibition of BCRP in human K562 cells assessed as potentiation of SN38-mediated growth inhibition at 3 uM after 4 days by coulter counter method; assay type: cell-based; conditions: k562, 96 h
T2 sequence (Q9UNQ0 whole entry): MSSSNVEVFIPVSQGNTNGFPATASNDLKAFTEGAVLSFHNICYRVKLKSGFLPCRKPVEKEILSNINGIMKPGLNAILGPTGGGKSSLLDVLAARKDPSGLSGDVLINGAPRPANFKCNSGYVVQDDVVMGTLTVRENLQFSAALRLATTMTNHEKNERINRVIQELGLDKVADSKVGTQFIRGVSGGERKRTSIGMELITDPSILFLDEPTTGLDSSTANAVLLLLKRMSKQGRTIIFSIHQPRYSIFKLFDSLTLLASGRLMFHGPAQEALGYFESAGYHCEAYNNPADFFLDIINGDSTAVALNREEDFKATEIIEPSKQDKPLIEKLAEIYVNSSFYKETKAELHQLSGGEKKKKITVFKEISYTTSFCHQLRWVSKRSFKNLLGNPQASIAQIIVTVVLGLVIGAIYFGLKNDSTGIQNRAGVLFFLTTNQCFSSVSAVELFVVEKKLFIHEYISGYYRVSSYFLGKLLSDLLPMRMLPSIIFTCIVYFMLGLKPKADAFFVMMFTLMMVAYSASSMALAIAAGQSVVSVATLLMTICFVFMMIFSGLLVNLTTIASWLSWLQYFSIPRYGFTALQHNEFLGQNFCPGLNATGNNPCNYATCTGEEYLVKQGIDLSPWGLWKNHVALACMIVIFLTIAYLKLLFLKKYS

[6] = biological target: T2, Broad substrate specificity ATP-binding cassette transporter ABCG2; experiment: Inhibition of BCRP (unknown origin)-dependent ATPase activity at 50 uM after 30 mins by malachite green method; conditions: 0.5 h
[7] = Cytotoxicity against human Jurkat cells; assay type: functional, cell-based
[8] = Cytotoxicity against human MCF7 cells; assay type: functional, cell-based
[9] = Cytotoxicity against human HeLa cells; assay type: functional, cell-based

| Structure (SMILES) | pIC50 [1] | pIC50 [2] | pIC50 [3] | pIC50 [4] | inhibition (INH) [5] | inhibition (INH) [6] | pIC50 [7] | pIC50 [8] | pIC50 [9] |
| --- | --- | --- | --- | --- | --- | --- | --- | --- | --- |
| CC(C)(O)[C@@H]1C[C@@H](O)[C@]2(C)[C@H](CC[C@@]3(C)[C@H]2CC[C@H]2Cc4c([nH]c5ccccc45)[C@@]23C)O1 [TERPENDOLE E] | < 4.00 | 4.92 | 4.46 | – | – | – | – | – | – |
| COc1ccc2c3c(n(CC=C(C)C)c2c1)[C@H](C=C(C)C)N1C(=O)[C@@H]2CCCN2C(=O)[C@]1(O)[C@H]3O | – | – | – | 4.82 to 5.30 | Active | Active | 4.82 to 5.30 | 4.82 to 5.30 | 4.82 to 5.30 |
| COc1ccc2c3c([nH]c2c1)[C@H](C=C(C)C)N1C(=O)[C@@H]2CCCN2C(=O)[C@]1(O)[C@H]3O | – | – | – | – | Active | Active | – | – | – |
| COc1ccc2c3c([nH]c2c1)[C@H](C=C(C)C)N1C(=O)[C@@H]2CCCN2C(=O)[C@@H]1C3 [FUMITREMORGIN] | – | – | – | – | Active | Active | – | – | – |
| CC(C)=C[C@H]1c2[nH]c3ccccc3c2C[C@H]2C(=O)N3CCC[C@H]3C(=O)N21 [DEMETHOXYFUMITREMORGIN C] | – | – | – | – | Active | Active | – | – | – |
| CC(C)(O)[C@@H]1CC(=O)[C@]2(C)[C@H](CC[C@@]3(C)[C@H]2CC[C@H]2Cc4c([nH]c5ccccc45)[C@@]23C)O1 | < 4.00 | 5.54 | 4.78 | – | – | – | – | – | – |
| COc1ccc2c3c4n(c2c1)[C@@H](C=C(C)C)OOC(C)(C)C[C@@H]4N1C(=O)[C@@H]2CCCN2C(=O)[C@]1(O)[C@H]3O | – | – | – | 4.52 to 4.70 | Active | Active | 4.52 to 4.70 | 4.52 to 4.70 | 4.52 to 4.70 |

From ChEMBL document CHEMBL3875184, “Biosynthetic approaches to creating bioactive fungal metabolites: Pathway engineering and activation of secondary metabolism” (Bioorg Med Chem Lett, 2016)
